Patent publication US20260327233A1, “Heteroaryl Compounds as Ligand Directed Degraders of IRAK4” (Celgene Corporation, priority 2023, published 2026)
Structures can show the parent of a compound that is named as a salt.

Assays:
[1] = biological target: T1, IRAK4 (Homo sapiens, UniProt Q9NWZ3); assay: ALE THP1 HTRF (IRAK4 HTRF in THP1 cell lysate, Cisbio HTRF kit); assay type: cell-based; design: THP1 Homogeneous Time Resolved Fluorescence (ALE THP1 HTRF) Procedure; endogenous in cells; host or cells: THP1; settings: anti-IRAK4 d2 / anti-IRAK4 k antibodies
T1 sequence (Q9NWZ3 1-460): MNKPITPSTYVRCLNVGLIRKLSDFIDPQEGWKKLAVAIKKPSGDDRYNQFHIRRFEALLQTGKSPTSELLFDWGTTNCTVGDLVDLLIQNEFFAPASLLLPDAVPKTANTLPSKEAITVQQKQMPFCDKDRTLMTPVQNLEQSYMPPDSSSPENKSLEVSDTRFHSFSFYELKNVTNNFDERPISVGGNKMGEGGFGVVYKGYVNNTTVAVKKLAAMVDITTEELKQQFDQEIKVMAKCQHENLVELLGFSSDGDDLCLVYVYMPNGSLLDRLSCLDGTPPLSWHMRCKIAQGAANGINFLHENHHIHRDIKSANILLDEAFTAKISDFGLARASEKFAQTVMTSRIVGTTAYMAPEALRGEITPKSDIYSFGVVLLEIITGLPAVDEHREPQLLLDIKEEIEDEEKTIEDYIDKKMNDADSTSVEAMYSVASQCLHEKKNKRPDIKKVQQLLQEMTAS
Method: Cell culture media was prepared in a tissue culture hood in a sterile environment by adding 10% FBS and 1% Penicillin Streptomycin to 500 mL no phenol red RPMI 1640 media. The media was filtered through a Nalgene Bottle Top Filter and stored at 4° C.
For Homogenous Time Resolved Fluorescence (HTRF) assays, a Cisbio HTRF kit was used, which included: Lysis Buffer #1 4×, Blocking Reagent #3 100×, 20× Antibody 1 (Anti-IRAK4 d2), 20× Antibody 2 (Anti-IRAK4 k), and Detection Buffer.
4× Lysis Buffer was stored at 4° C. For use as 1× Lysis buffer, the 4× solution was diluted with de-ionized water (distilled water, Gibco Cat. #15230279) and 100× Blocking Reagent in a 1:3:0.04 volume ratio.
20× Antibody Solution aliquots were stored at −80° C. and the Detection Buffer was stored at 4° C. For use as a 1× Antibody Solution, the 20× Antibody Solution aliquot was diluted with Detection Buffer in a 1:19 volume ratio.
Cells were lysed at room temperature for 45 min with shaking. A BCA protein assay was performed and normalization was conducted to the desired total protein concentration with 1× lysis buffer. Next, 1× Antibody Solutions were prepared by adding 380 μL Detection Buffer to 20 μL 20× Antibody Solution aliquots and mixing well. 1× Antibody Solutions were combined 1:1 and briefly vortexed. For control wells, 20 μL 1× anti IRAK4-k Antibody Solution was saved. The 384-well plate (ProxiPlate-384 Plus, Perkin Elmer Cat. #6008289) was loaded by adding 4 μL of the mixed Antibody Solution to empty wells using a single channel repeater. Using a multi-channel repeater, 16 μL lysate was added per well, and any bubbles that were formed were popped with 20 μL pipette tips and Kimwipe edges. In column 10, triplicates of each control were prepared. In wells A10, B10, and C10, buffer control was prepared by adding 16 μL Lysis Buffer and 4 μL Detection Buffer. In wells D10, E10, and F10, cryptate control was prepared by adding 16 μL Lysis Buffer, 2 μL Detection Buffer, and 2 μL 1× anti-IRAK4-k Antibody Solution. In wells G10, H10, and 110, a negative control was prepared by adding 16 μL Lysis Buffer and 4 μL mixed Antibody Solution. The plate was sealed with a clear seal and covered with an aluminum lid. The plate was spun down at 800 g for 5 min and incubated in the dark at room temperature overnight. The next day, the plate was spun down at 800 g for 5 min. The samples were analyzed by a plate reader (Envision, PerkinElmer) using the Desnor 384 HTRF program.

[2] = biological target: T1, IRAK4; assay: IRAK4 PhosphoSens Biochemical Assay (BIOCHEM); settings: IRAK4 1 nM; ATP and Sox conjugated peptide substrate AQT0326; pH 7.5; room temperature; 240 minutes
Method: The PhosphoSens® biochemical assay was performed as described by the vendor (AssayQuant Technologies Inc. Marlborough, MA). A 1.25× stock solution of IRAK4 (PV4002, ThermoFisher Scientific, Waltham, MA) and a 5× stock solution of ATP and Sox conjugated peptide substrate, AQT0326 (CSKS-AQT0326B, AssayQuant Technologies), were prepared in 1× kinase reaction buffer consisting of 50 mM HEPES, pH 7.5, 0.01% Brij-35, 0.5 mM EGTA, 20 mM MgCl2 and 1 mM DTT. 10 μL of the ATP and substrate solution mix, for a final concentration of 200 µM ATP and […] peptide substrate, was added to a Corning 3574 384-well, white, non-binding surface microtiter plate containing 0.5 μL of serially diluted test compounds prepared in DMSO. The reactions were started with the addition of 40 μL of the enzyme solution, for a final IRAK4 concentration of 1 nM, and monitored every 71 seconds for 240 minutes at λEX 360/λEM 485 in a BioTek Synergy H4 plate reader (Agilent Technologies, Santa Clara, CA) at room temperature. The initial linear portions of the progress curves were fit according to a linear equation to yield the slopes and converted to % inhibition based on a value of 100% activity for the no inhibitor treated control. IC50 values of each compound were obtained by fitting the % inhibition-compound concentration curves using Dotmatics software (Dotmatics, Bishops Stortford, Hertfordshire, England),

| EC50 [1] | ALE THP1 HTRF YMIN [1] | IC50 [2] | SMILES |
| --- | --- | --- | --- |
| 5 nM | 18% | < 0.5 nM | N[C@@H]1C[C@@H](F)CN(c2ccn3ncc(C(=O)Nc4cn([C@H]5CC[C@H](C(=O)N6CCN(c7ccc8c(c7)C(=O)N(C7CCC(=O)NC7=O)C8)CC6)CC5)nc4C(F)F)c3n2)C1 (stereo partly drawn) [Compound P-21] |
| 3 nM | 27% | < 0.5 nM | N[C@@H]1C[C@@H](F)CN(c2ccn3ncc(C(=O)Nc4cn([C@H]5CC[C@H](C(=O)N6CCN(c7ccc8c(c7)C(=O)N(C7CCC(=O)NC7=O)C8)CC6)CC5)nc4C(F)(F)F)c3n2)C1 (stereo partly drawn) [Compound P-22] |
| 8 nM | 20% | < 0.5 nM | N#Cc1nn([C@H]2CC[C@H](C(=O)NC3CCN(c4ccc5c(c4)C(=O)N(C4CCC(=O)NC4=O)C5=O)CC3)CC2)cc1NC(=O)c1cnn2ccc(N3C[C@H](N)C[C@@H](F)C3)nc12 (stereo partly drawn) [Compound P-23] |
| 4 nM | 11% | < 0.5 nM | N[C@@H]1C[C@@H](F)CN(c2ccn3ncc(C(=O)Nc4cn([C@H]5CC[C@H](C(=O)NC6CCN(c7ccc8c(c7)CN(C7CCC(=O)NC7=O)C8=O)CC6)CC5)nc4C(F)F)c3n2)C1 (stereo partly drawn) [Compound P-24] |
| 7 nM | 11% | < 0.5 nM | N[C@@H]1C[C@@H](F)CN(c2ccn3ncc(C(=O)Nc4cn([C@H]5CC[C@H](C(=O)NC6CCN(c7ccc8c(c7)C(=O)N(C7CCC(=O)NC7=O)C8)CC6)CC5)nc4C(F)F)c3n2)C1 (stereo partly drawn) [Compound P-25] |
| 6 nM | 29% | < 0.5 nM | N[C@@H]1C[C@@H](F)CN(c2ccn3ncc(C(=O)Nc4cn([C@H]5CC[C@H](CN6CCN(c7ccc8c(c7)C(=O)N(C7CCC(=O)NC7=O)C8=O)CC6)CC5)nc4C(F)F)c3n2)C1 (stereo partly drawn) [Compound P-26] |
| 26 nM | 24% | < 0.5 nM | Cc1nn([C@H]2CC[C@H](C(=O)NC3CCN(c4ccc5c(c4)C(=O)N(C4CCC(=O)NC4=O)C5=O)CC3)CC2)cc1NC(=O)c1cnn2ccc(N3C[C@H](N)C[C@@H](F)C3)nc12 (stereo partly drawn) [Compound P-27, N-[1-[4-[[1-[2-(2,6-dioxo-3-piperidyl)-1,3-dioxo-isoindolin-5-yl]-4-piperidyl]carbamoyl]cyclohexyl]-3-methyl-pyrazol-4-yl]-5-[(3R,5R)-3-amino-5-fluoro-1-piperidyl]pyrazolo[1,5-a]pyrimidine-3-carboxamide hydroxhloride] |
| > 10000 nM | >95% | > 1 nM | Cc1c(NC(=O)c2cnn3ccc(N4C[C@H](N)C[C@@H](F)C4)nc23)cnn1[C@H]1CC[C@H](C(=O)NC2CCN(c3ccc4c(c3)C(=O)N(C3CCC(=O)NC3=O)C4=O)CC2)CC1 (stereo partly drawn) [Compound P-28] |
| 4 nM | 10% | < 0.5 nM | N[C@@H]1C[C@@H](F)CN(c2ccn3ncc(C(=O)Nc4cn([C@H]5CC[C@H](NC(=O)C6CCN(c7ccc8c(c7)C(=O)N(C7CCC(=O)NC7=O)C8=O)CC6)CC5)nc4C(F)F)c3n2)C1 (stereo partly drawn) [Compound P-29, 5-[(3R,5R)-3-Amino-5-fluoro-1-piperidyl]-N-[3-(difluoromethyl)-1-[4-[[1-[2-(2,6-dioxo-3-piperidyl)-1,3-dioxo-isoindolin-5-yl]piperidine-4-carbonyl]amino]cyclohexyl]pyrazol-4-yl]pyrazolo[1,5-a]pyrimidine-3-carboxamide hydrochloride] |
| 8 nM | 10% | < 0.5 nM | N[C@@H]1C[C@@H](F)CN(c2ccn3ncc(C(=O)Nc4cn([C@H]5CC[C@H](CCN6CCN(c7ccc8c(c7)CN(C7CCC(=O)NC7=O)C8=O)CC6)CC5)nc4C(F)F)c3n2)C1 (stereo partly drawn) [Compound P-30, N-[3-(Difluoromethyl)-1-[4-[2-[4-[2-(2,6-dioxo-3-piperidyl)-1-oxo-isoindolin-5-yl]piperazin-1-yl]ethyl]cyclohexyl]pyrazol-4-yl]-5-[(3R,5R)-3-amino-5-fluoro-1-piperidyl]pyrazolo[1,5-a]pyrimidine-3-carboxamide dihydrochloride] |
| 7 nM | 27% | < 0.5 nM | O=C1CCC(N2Cc3cc(N4CCC(NC(=O)[C@H]5CC[C@H](n6cc(NC(=O)c7cnn8ccc(N9CCOCC9)nc78)c(C(F)F)n6)CC5)CC4)ccc3C2=O)C(=O)N1 (stereo partly drawn) [Compound P-31, N-[3-(difluoromethyl)-1-[4-[[1-[2-(2,6-dioxo-3-piperidyl)-1-oxo-isoindolin-5-yl]-4-piperidyl]carbamoyl]cyclohexyl]pyrazol-4-yl]-5-morpholino-pyrazolo[1,5-a]pyrimidine-3-carboxamide] |
| 6 nM | 12% | < 0.5 nM | CN(C[C@H]1CC[C@H](n2cc(NC(=O)c3cnn4ccc(N5C[C@H](N)C[C@@H](F)C5)nc34)c(C(F)F)n2)CC1)C1CCN(c2ccc3c(c2)CN(C2CCC(=O)NC2=O)C3=O)CC1 (stereo partly drawn) [Compound P-32, N-[3-(Difluoromethyl)-1-[4-[[[1-[2-(2,6-dioxo-3-piperidyl)-1-oxo-isoindolin-5-yl]-4-piperidyl]-methyl-amino]methyl]cyclohexyl]pyrazol-4-yl]-5-[(3r,5r)-3-amino-5-fluoro-1-piperidyl]pyrazolo[1,5-a]pyrimidine-3-carboxamide hydrochloride] |
| 24 nM | 68% | 9.4 nM | C[C@@H]1CN(c2ccn3ncc(C(=O)Nc4cn([C@H]5CC[C@H](C(=O)NC6CCN(c7ccc8c(c7)CN(C7CCC(=O)NC7=O)C8=O)CC6)CC5)nc4C(F)F)c3n2)C[C@H](C)O1 (stereo partly drawn) [Compound P-33] |
| 6 nM | 9% | < 0.5 nM | CN(c1ccc2c(c1)CN(C1CCC(=O)NC1=O)C2=O)C1CCN(C[C@H]2CC[C@H](n3cc(NC(=O)c4cnn5ccc(N6C[C@H](N)C[C@@H](F)C6)nc45)c(C(F)F)n3)CC2)CC1 (stereo partly drawn) [Compound P-34] |
| 9 nM | 29% | 0.9 nM | CN(C[C@H]1CC[C@H](n2cc(NC(=O)c3cnn4ccc(N5CCOCC5)nc34)c(C(F)F)n2)CC1)[C@H]1CC[C@H](Nc2cccc3c2C(=O)N(C2CCC(=O)NC2=O)C3=O)CC1 (stereo partly drawn) [Compound P-36] |
| 20 nM | 12% | < 0.5 nM | CN(C[C@H]1CC[C@H](n2cc(NC(=O)c3cnn4ccc(N5C[C@H](N)C[C@@H](F)C5)nc34)c(C(F)F)n2)CC1)[C@H]1CC[C@H](Nc2cccc3c2C(=O)N(C2CCC(=O)NC2=O)C3=O)CC1 (stereo partly drawn) [Compound P-37] |
